From US8487108B2, “Piperidinyl carbamate intermediates for the synthesis of aspartic protease inhibitors” (Vitae Pharmaceuticals, Inc., priority 2005, dated 2013)

Legend:
[1] = test system: double transgenic rats engineered to express human renin and human angiotensinogen; assay: Blood pressure by telemetry in double transgenic rats; format: in vivo, rat; settings: dosage of 10 mg/kg, oral
Protocol: Double Transgenic Rats: The efficacy of the renin inhibitors can also evaluated in vivo in double transgenic rats engineered to express human renin and human angiotensinogen (Bohlender J, Fukamizu A, Lippoldt A, Nomura T, Dietz R, Menard J, Murakami K, Luft F C, Ganten D. High human renin hypertension in transgenic rats. Hypertension 1997, 29, 428-434).
(§1) Experiments were conducted in 6-week-old double transgenic rats (dTGRs). The model has been described in detail earlier. […] The human angiotensinogen construct made up the entire human angiotensinogen gene (5 exons and 4 introns), with 1.3 kB of 5′-flanking and 2.4 kB of 3′-flanking sequences. The rats were purchased from RCC Ltd (Füllinsdorf, Switzerland). Radio telemetry transmitters were surgically implanted at 4 weeks of age. The telemetry system provided 24-h recordings of systolic, mean, diastolic arterial pressure (SAP, MAP, DAP, respectively) and heart rate (HR). Beginning on day 42, animals were transferred to telemetry cages. A 24 h telemetry reading was obtained. Rats were then dosed orally on the following 4 consecutive days (days 43-46). The rats were monitored continuously and allowed free access to standard 0.3%-sodium rat chow and drinking water.

[2] = Plasma concentration in double transgenic rats after oral administration; format: in vivo, rat; settings: 10 mg/kg oral
Protocol: FIG. 2 is a plot showing mean plasma concentrations of compound L-6a in transgenic rats over time following oral administration of 10 mg/kg of compound L-6a.
as §1

[3] = molecular target: T1, trypsin-activated recombinant human renin (Homo sapiens, UniProt P00797); assay: Renin fluorescence assay (internally quenched peptide substrate); format: biochemical; settings: compounds of Formula (XL)
T1 sequence (P00797 67-406): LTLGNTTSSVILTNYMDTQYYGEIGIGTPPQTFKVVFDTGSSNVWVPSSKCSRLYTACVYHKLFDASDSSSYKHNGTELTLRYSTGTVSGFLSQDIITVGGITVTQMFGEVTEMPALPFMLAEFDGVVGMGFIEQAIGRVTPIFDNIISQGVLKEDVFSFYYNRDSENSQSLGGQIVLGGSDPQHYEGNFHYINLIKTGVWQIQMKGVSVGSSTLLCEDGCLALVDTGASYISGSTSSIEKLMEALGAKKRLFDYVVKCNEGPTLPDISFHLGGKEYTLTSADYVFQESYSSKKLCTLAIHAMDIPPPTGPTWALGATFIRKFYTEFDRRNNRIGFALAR
Outline: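 Compounds (1 nM–10 μM final, DMSO) were mixed with internally quenched angiotensinogen-sequence substrate in pH 7.0 BES/NaCl/BSA buffer, then 0.2-2 nM trypsin-activated human renin added. Rate from the linear fluorescence increase (340 nm excitation, 495 nm emission) over 60-360 min at rt, compared with uninhibited control.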

[4] = molecular target: T2, plasma renin activity (PRA) in pooled mixed-gender human plasma (Homo sapiens, UniProt P00797); assay: Plasma renin activity (PRA) assay in human plasma; format: biochemical; settings: compounds of Formula (XL)
T2 construct: pooled mixed-gender human plasma stabilized with EDTA; from tissue; host or cells: pooled mixed-gender human plasma (EDTA)
T2 sequence (P00797 67-406): T1 sequence (P00797 67-406)
Protocol: Incubations mixtures contain in the final volume of 250 μL 95.5 mM N,N-bis(2-hydroxyethyl)-2-aminoethanesulfonic acid, pH 7.0, 8 mM EDTA, 0.1 mM neomycin sulfate, 1 mg/mL sodium azide, 1 mM phenylmethanesulfonyl fluoride, 2% DMSO and 87.3% of pooled mixed-gender human plasma stabilized with EDTA. For plasma batches with low PRA (less than 1 ng/ml/hr) ˜2 pM of recombinant human renin is added to achieve PRA of 3-4 ng/ml/hr. The cleavage of endogenous angiotensinogen in plasma is carried out at 37° C. for 90 min and the product angiotensin I is measured by competitive radioimmunoassay using DiaSorin PRA kit.

| availability in rat's plasma following oral administration [2] | metabolic stability [2] | oral bioavailability [2] | plasma concentration over 24 h period ([2]; over 24 h) | IC50 [3] [nM] | IC50 [4] [nM] | Compound | effect in lowering blood pressures of double transgenic rats [1] |
| --- | --- | --- | --- | --- | --- | --- | --- |
| readily available in rat's plasma | excellent | excellent | remains relatively high | – | – | CNC[C@H](C[C@H]1CCCOC1)NC(=O)N1CCC[C@@H]([C@@H](OCCNC(=O)OC)c2cccc(Cl)c2)C1 [Example L-6a, methyl 2-((R)-(3-chlorophenyl)((R)-1-((S)-1-(methylamino)-3-((R)-tetrahydro-2H-pyran-3-yl)propan-2-ylcarbamoyl)-piperidin-3-yl)methoxy)-ethylcarbamate] | significant effect in lowering blood pressures |
| – | – | – | – | < 1 | < 10 | CN[C@H](CNC(=O)N1CCC[C@@H]([C@@H](OCCNC(=O)OC)c2cccc(Cl)c2)C1)C[C@H]1CCCOC1 [XL-7, methyl 2-((R)-(3-chlorophenyl)((R)-1-((S)-2-(methylamino)-3-((R)-tetrahydro-2H-pyran-3-yl)propylcarbamoyl)piperidin-3-yl)methoxy)ethylcarbamate] | significant effect in lowering blood pressures |
